For one experiment, the system named is position 33 of hSOD. Description: LC-MS/MS of tryptic peptide VY*GSIK of mutant hSOD: identity of the amino acid incorporated. Details: species or system Saccharomyces cerevisiae. The following applies: from the signal-to-noise ratio of the peptide spectra; hSOD position 33. How it is done:
The identity of the amino acid incorporated was determined by subjecting a tryptic digest of the mutant protein to liquid chromatography and tandem mass spectrometry. For example, for mass spectrometry protein bands were visualized by colloidal Coomassie stain. Gel bands corresponding to wild-type and mutant SOD were excised from polyacrylamide gels, sliced into 1.5-mm cubes, reduced and alkylated, then subjected to trypsin hydrolysis essentially as described. See, e.g., A. Shevchenko, et al., (1996), Analytical Chemistry 68, 850-858. Tryptic peptides containing the unnatural amino acid were analyzed by nanoflow reversed-phase HPLC/μESI/MS with an LCQ ion trap mass spectrometer. Liquid chromatography tandem mass spectrometry (LC-MS/MS) analysis was performed on a Finnigan LCQ Deca ion trap mass spectrometer (Thermo Finnigan) fitted with a Nanospray HPLC (Agilent 1100 series). See, e.g., FIG. 10, Panels A-H. […]
For example, the wild-type and mutant hSOD were purified using nickel affinity column and protein bands were visualized by colloidal Coomassie stain. […] Tryptic peptides containing the unnatural amino acid were analyzed by nanoflow reversed-phase HPLC/μESI/MS with an LCQ ion trap mass spectrometer. […]

The test system of experiment [1] is GAL4 responsive HIS3, URA3 and lacZ reporters in MaV203. The experiment in a line: Growth of selection strain MaV203:pGADGAL4(2TAG) harboring synthetase plasmids on selective media (-ura, -his + 3-AT, 5-FOA, X-GAL). In kind it is cell-based, Saccharomyces cerevisiae. The following applies: MaV203 containing pGADGAL4(T44TAG, R110TAG). The procedure:
S. cerevisiae strain MaV203, (Invitrogen) is MATα; leu2-3,112; trp1 109;his3 Δ200;ade2-101;cyh2^R;cyh1^R;GAL4 Δ; gal80 Δ; GAL1::lacZ; HIS3UASGAL1::HIS3@LYS2; SPAL10UASGAL1::URA3. Yeast media were purchased from Clontech, 5-FOA and X-GAL were from Invitrogen and 3-AT was from BIO 101. YPER (Yeast Protein Extraction Reagent) and ONPG were purchased from Pierce Chemicals. Plasmid transformations were performed by the PEG/Lithium actetate method (see, e.g., D. Burke, et al., (2000) Methods in Yeast Genetics. Cold Spring Harbor Laboratory Press, Cold Spring Harbor, N.Y.) and transformants selected on the appropriate synthetic complete dropout media. To test the phenotypes conferred by various plasmid combinations on MaV203 yeast colonies from synthetic complete dropout plates of each transformation were resuspended in 15 μL of sterile water and streaked on the selective media of interest. […] The OD660 of 100 μL of cells, and several dilutions of cells were recorded in parallel in a 96 well microtiter plate. […] Upon color development, cells were pelleted by centrifugation, the supernatant transferred to a clean 96 well microtiter plate (Nunclon, cat.# 167008), and the A420 recorded. […] ONPG hydrolysis was calculated using the equation: beta-galactosidase units=[…]. […] Spectrophotometric readings were performed on a SPECTRAmax190 plate reader. […]

Consider 2 molecules from patent publication US7888063B2, “Unnatural reactive amino acid genetic code additions” (The Scripps Research Institute, priority 2003, dated 2011).

In the case of `CC(=O)c1ccc(C[C@H](N)C(=O)O)cc1` [p-acetyl-L-phenylalanine], in the experiment with position 33 of hSOD, the incorporation purity was no less than 99.8%.

B1: EcTyrRS: Escherichia coli tyrosyl-tRNA synthetase, expressed with tRNACUA in yeast (protein, UniProt P0AGJ9 2-424, looked up)
Tyrosine--tRNA ligase: ASSNLIKQLQERGLVAQVTDEEALAERLAQGPIALYCGFDPTADSLHLGHLVPLLCLKRFQQAGHKPVALVGGATGLIGDPSFKAAERKLNTEETVQEWVDKIRKQVAPFLDFDCGENSAIAANNYDWFGNMNVLTFLRDIGKHFSVNQMINKEAVKQRLNREDQGISFTEFSYNLLQGYDFACLNKQYGVVLQIGGSDQWGNITSGIDLTRRLHQNQVFGLTVPLITKADGTKFGKTEGGAVWLDPKKTSPYKFYQFWINTADADVYRFLKFFTFMSIEEINALEEEDKNSGKAPRAQYVLAEQVTRLVHGEEGLQAAKRITECLFSGSLSALSEADFEQLAQDGVPMVEMEKGADLMQALVDSELQPSRGQARKTIASNAITINGEKQSDPEYFFKEEDRLFGRFTLLRRGKKNYCLICWK
On to B1, for which the “growth phenotype on 3-AT plates” value in experiment [1] was “grew robustly on plates with 3-AT concentrations up to 75 mM”.
